US20260250325A1, “Antiviral Polypeptide Membrane Fusion Inhibitor, and Preparation Method and Application Thereof” (priority 2025, published 2026)
Where a SMILES comes first, the peptide text is derived from it. The star is where a group is joined. Succinyl(4-O-cholesteryl) = CC(C)CCC[C@@H](C)[C@H]1CC[C@H]2[C@@H]3CC=C4C[C@@H](OC(=O)CCC(=O)*)CC[C@]4(C)[C@H]3CC[C@]12C

Assays:
Type in all cases: cell-based
RSV A long virus strain = conditions: RSV A long virus strain, HEp-2 cells, plaque reduction, 1 day; read-out: IC50
Outline: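 Plaque reduction in HEp-2 cells: virus (100 PFU/well) and serially diluted compound (8 concentrations) mixed 1 h, adsorbed 2 h, then overlaid with 0.8% CMC medium plus compound for 1 day at 37 °C. Spots counted after anti-RSV immunostaining; IC50 from normalized inhibition, CC50 from viability data.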

hMPV A2 = conditions: Vero cells, plaque reduction
Description: (§1) African green monkey kidney cells (Vero) were sourced from the ATCC, with catalog number CCL-81. The cells were cultured in a DMEM culture solution in which 10% fetal bovine serum, 1% non-essential amino acids, 1% sodium pyruvate, 1% L-glutamine, 100 U/ml penicillin, and 100 μg/ml streptomycin were added.
(§2) A hMPV plaque experiment culture medium consisted of an Opti-MEM culture solution added with 1% non-essential amino acids, 100 U/mL penicillin, and 100 μg/mL streptomycin.
(§3) hMPV virus strains A2 and B1 were constructed by WuXi App Tec.
(§4) This study used a plaque reduction experiment to detect the in-vitro activity of a test sample against the hMPV virus strains A2 and B1.
(§5) The test sample and an experimental system were tested at 8 concentrations in duplicated wells. The Vero cells were digested with trypsin and then diluted to a concentration of 400,000 cells per milliliter by using a cell culture solution containing 2% serum. The diluted cells were added to a 96-well cell test board, with 100 μL per well, corresponding to 40000 cells per well. The cells were cultured overnight in a 37° C. incubator with 5% CO2.
(§6) On the second day, the test sample was diluted in an experimental culture medium at a fold ratio. The sample diluted at a fold ratio and an equal volume of virus (approximately 200 PFU per well) were well mixed and incubated at 33° C. in 5% CO2 for 1 h. Then, the culture solution in the 96-well cell test board was discarded, the sample virus mixed solution (100 μL) was added to the 96-well cell culture plate, and incubated at 37° C. in 5% CO2 for 2 hours. After 2 h, the sample virus mixed solution was discarded, 200 μL of an experiment culture medium containing the test sample with a corresponding concentration was added, and the culture solution contained 0.8% CMC and 5 μg/ml trypsin. A final concentration of DMSO in the culture solution was 0.5%. A system control antibody was directly added to the experiment culture solution containing 0.8% CMC and 5 μg/ml trypsin. A cell control (cells, without compound treatment or viral infection) and a viral control (cell infection virus, without compound treatment) were set. The cells were cultured for 1 day in the 33° C. incubator with 5% CO2.
(§7) The cells were fixed with 4% paraformaldehyde, and then permeabilization was performed with 0.5% Triton X-100. After the plate was washed with DPBS, a hMPV specific antibody (1:2000 dilution) was added and incubated at 37° C. for 1.5 h. Then, a secondary antibody (1:1000 dilution) was added and incubated at 37° C. for 1 hour. The secondary antibody was discarded, a TrueBlue solution was added, dyeing was performed for approximately 10 minutes; and the plate was washed with running water and then air-dried, and the number of spots in each well was counted by using a microplate imaging counter.
(§8) Raw data was used for analyzing the antiviral activity of the test samples. A calculation formula was shown as follows.
(§9) % inhibition rate=100−(sample value-cell control average value)/(virus control average value-cell control average value)×100
(§10) Non-linear fitting analysis was performed on the inhibition rate of the sample by using GraphPad Prism (version 10), so as to calculate an EC50 value for the sample. A fitting formula was log (inhibitor) vs. response-Variable slope (four parameters).

hMPV B1 = conditions: Vero cells, plaque reduction
Description: as §1, §2, §3, §4, §5, §6, §7, §8, §9, §10

Compound	IC50 (RSV A long virus strain) [nM]	EC50 (hMPV A2) [nM]	EC50 (hMPV B1) [nM]
CC[C@H](C)[C@H](NC(=O)[C@H](CO)NC(=O)[C@H](C)NC(=O)[C@H](CC(=O)O)NC(=O)[C@H](Cc1ccccc1)NC(C)=O)C(=O)N[C@@H](CCC(=O)O)C(=O)N[C@@H](CCC(=O)O)C(=O)N[C@H](C(=O)N[C@@H](CC(N)=O)C(=O)N[C@@H](CCCNC(=N)N)C(=O)N[C@@H](CCCNC(=N)N)C(=O)N[C@H](C(=O)N[C@@H](CCC(=O)O)C(=O)N[C@@H](CCC(=O)O)C(=O)N[C@@H](CO)C(=O)N[C@@H](CC(C)C)C(=O)N[C@@H](CCCNC(=N)N)C(=O)N[C@@H](CCCNC(=N)N)C(=O)N[C@H](C(=O)N[C@@H](CCC(=O)O)C(=O)N[C@@H](CCC(=O)O)C(=O)N[C@@H](CO)C(=O)N[C@@H](CC(=O)O)C(=O)N[C@@H](CCCNC(=N)N)C(=O)N[C@@H](CCCNC(=N)N)C(=O)N[C@@H](CC(C)C)C(=O)N[C@@H](CCC(=O)O)C(=O)N[C@@H](CCC(=O)O)C(=O)N[C@H](C(=O)N[C@@H](CC(N)=O)C(=O)N[C@@H](C)C(=O)N[C@@H](CCC(=O)O)C(=O)N[C@@H](C)C(=O)N[C@@H](C)C(=O)N[C@@H](C)C(=O)N[C@@H](CCCCN)C(=O)N[C@@H](CCCCNC(=O)CCC(=O)O[C@H]1CC[C@@]2(C)C(=CC[C@H]3[C@@H]4CC[C@H]([C@H](C)CCCC(C)C)[C@@]4(C)CC[C@@H]32)C1)C(N)=O)C(C)C)[C@@H](C)CC)[C@@H](C)CC)C(C)C [Compound 42] (Ac-FDASIEEVNRRIEESLRRIEESDRRLEEVNAEAAAKK(Succinyl(4-O-cholesteryl))-NH2)	11.8	26.1	10.1
CC[C@H](C)[C@H](NC(=O)[C@H](CO)NC(=O)[C@H](C)NC(=O)[C@H](CC(=O)O)NC(=O)[C@H](Cc1ccccc1)NC(=O)[C@H](CCC(=O)O)NC(=O)[C@H](CC(=O)O)NC(=O)[C@H](Cc1c[nH]c2ccccc12)NC(C)=O)C(=O)N[C@@H](CCC(=O)O)C(=O)N[C@@H](CCC(=O)O)C(=O)N[C@H](C(=O)N[C@@H](CC(N)=O)C(=O)N[C@@H](CCCNC(=N)N)C(=O)N[C@@H](CCCNC(=N)N)C(=O)N[C@H](C(=O)N[C@@H](CCC(=O)O)C(=O)N[C@@H](CCC(=O)O)C(=O)N[C@@H](CO)C(=O)N[C@@H](CC(C)C)C(=O)N[C@@H](CCCNC(=N)N)C(=O)N[C@@H](CCCNC(=N)N)C(=O)N[C@H](C(=O)N[C@@H](CCC(=O)O)C(=O)N[C@@H](CCC(=O)O)C(=O)N[C@@H](CO)C(=O)N[C@@H](CC(=O)O)C(=O)N[C@@H](CCCNC(=N)N)C(=O)N[C@@H](CCCNC(=N)N)C(=O)N[C@@H](CC(C)C)C(=O)N[C@@H](CCC(=O)O)C(=O)N[C@@H](CCC(=O)O)C(=O)N[C@H](C(=O)N[C@@H](CCC(=O)O)C(=O)N[C@@H](C)C(=O)N[C@@H](C)C(=O)N[C@@H](C)C(=O)N[C@@H](CCCCN)C(=O)N[C@@H](CCCCNC(=O)CCC(=O)O[C@H]1CC[C@@]2(C)C(=CC[C@H]3[C@@H]4CC[C@H]([C@H](C)CCCC(C)C)[C@@]4(C)CC[C@@H]32)C1)C(N)=O)C(C)C)[C@@H](C)CC)[C@@H](C)CC)C(C)C [Compound 43] (Ac-WDEFDASIEEVNRRIEESLRRIEESDRRLEEVEAAAKK(Succinyl(4-O-cholesteryl))-NH2)	18.3	16.8	8.01
CC[C@H](C)[C@H](NC(=O)[C@H](CCCCN)NC(=O)[C@H](CCCCN)NC(=O)[C@H](CC(C)C)NC(=O)[C@H](CO)NC(=O)[C@H](CCC(=O)O)NC(=O)[C@H](CCC(=O)O)NC(=O)[C@@H](NC(=O)[C@H](CCCCN)NC(=O)[C@H](CCCCN)NC(=O)[C@H](CC(N)=O)NC(=O)[C@@H](NC(=O)[C@H](CCC(=O)O)NC(=O)[C@H](CCC(=O)O)NC(=O)[C@@H](NC(=O)[C@H](CCCCN)NC(=O)[C@H](CCCCN)NC(=O)[C@H](CC(=O)O)NC(=O)[C@H](Cc1ccccc1)NC(=O)[C@H](CCC(=O)O)NC(=O)[C@H](CC(=O)O)NC(=O)[C@H](Cc1c[nH]c2ccccc12)NC(C)=O)[C@@H](C)CC)C(C)C)[C@@H](C)CC)C(=O)N[C@@H](CCC(=O)O)C(=O)N[C@@H](CCC(=O)O)C(=O)N[C@@H](CO)C(=O)N[C@@H](CC(=O)O)C(=O)N[C@@H](CCCCN)C(=O)N[C@@H](CCCCN)C(=O)N[C@@H](CC(C)C)C(=O)N[C@@H](Cc1c[nH]cn1)C(=O)N[C@@H](CC(N)=O)C(=O)N[C@H](C(=O)N[C@@H](CCC(=O)O)C(=O)N[C@@H](C)C(=O)N[C@@H](C)C(=O)N[C@@H](C)C(=O)N[C@@H](CCCCN)C(=O)N[C@@H](CCCCNC(=O)CCC(=O)O[C@H]1CC[C@@]2(C)C(=CC[C@H]3[C@@H]4CC[C@H]([C@H](C)CCCC(C)C)[C@@]4(C)CC[C@@H]32)C1)C(N)=O)C(C)C [Compound 44] (Ac-WDEFDKKIEEVNKKIEESLKKIEESDKKLHNVEAAAKK(Succinyl(4-O-cholesteryl))-NH2)	12.4	14.6	6.6
CC[C@H](C)[C@H](NC(=O)[C@H](CO)NC(=O)[C@H](C)NC(=O)[C@H](CC(=O)O)NC(=O)[C@H](Cc1ccccc1)NC(=O)[C@H](CCC(=O)O)NC(=O)[C@H](CC(=O)O)NC(=O)[C@H](Cc1c[nH]c2ccccc12)NC(C)=O)C(=O)N[C@@H](CO)C(=O)N[C@@H](CCC(N)=O)C(=O)N[C@H](C(=O)N[C@@H](CC(N)=O)C(=O)N[C@@H](CCC(=O)O)C(=O)N[C@@H](CCCCN)C(=O)N[C@H](C(=O)N[C@@H](CC(N)=O)C(=O)N[C@@H](CCC(N)=O)C(=O)N[C@@H](CO)C(=O)N[C@@H](CC(C)C)C(=O)N[C@@H](CCC(=O)O)C(=O)N[C@@H](CCC(=O)O)C(=O)N[C@H](C(=O)N[C@@H](CCCNC(=N)N)C(=O)N[C@@H](CCCCN)C(=O)N[C@@H](CO)C(=O)N[C@@H](CC(=O)O)C(=O)N[C@@H](CCC(=O)O)C(=O)N[C@@H](CC(C)C)C(=O)N[C@@H](CC(C)C)C(=O)N[C@@H](Cc1c[nH]cn1)C(=O)N[C@@H](CC(N)=O)C(=O)N[C@@H](CCC(=O)O)C(=O)N[C@@H](C)C(=O)N[C@@H](C)C(=O)N[C@@H](C)C(=O)N[C@@H](CCCCN)C(=O)N[C@@H](CCCCNC(=O)CCC(=O)O[C@H]1CC[C@@]2(C)C(=CC[C@H]3[C@@H]4CC[C@H]([C@H](C)CCCC(C)C)[C@@]4(C)CC[C@@H]32)C1)C(N)=O)[C@@H](C)CC)[C@@H](C)CC)C(C)C [Compound 45] (Ac-WDEFDASISQVNEKINQSLEEIRKSDELLHNEAAAKK(Succinyl(4-O-cholesteryl))-NH2)	12.2	200	13.1
CC[C@H](C)[C@H](NC(=O)[C@H](CCCCN)NC(=O)[C@H](CCCCN)NC(=O)[C@H](CC(C)C)NC(=O)[C@H](CO)NC(=O)[C@H](CCC(N)=O)NC(=O)[C@H](CC(N)=O)NC(=O)[C@@H](NC(=O)[C@H](CCCCN)NC(=O)[C@H](CCCCN)NC(=O)[C@H](CC(=O)O)NC(=O)[C@H](Cc1ccccc1)NC(=O)[C@H](CCC(=O)O)NC(=O)[C@@H](NC(=O)[C@H](CCCCN)NC(=O)[C@H](CCCCN)NC(=O)[C@H](CC(N)=O)NC(=O)[C@@H](NC(=O)[C@H](CC(C)C)NC(=O)[C@H](CCC(=O)O)NC(=O)[C@H](CC(=O)O)NC(=O)[C@H](CO)NC(C)=O)C(C)C)[C@@H](C)CC)[C@@H](C)CC)C(=O)N[C@@H](CCC(=O)O)C(=O)N[C@@H](CCC(=O)O)C(=O)N[C@@H](CO)C(=O)N[C@@H](CC(=O)O)C(=O)N[C@@H](CCCCN)C(=O)N[C@@H](CCCCN)C(=O)N[C@@H](CCCCN)C(=O)N[C@@H](CC(C)C)C(=O)N[C@@H](CCC(=O)O)C(=O)N[C@@H](C)C(=O)N[C@@H](C)C(=O)N[C@@H](C)C(=O)N[C@@H](CCCCN)C(=O)N[C@@H](CCCCN)C(N)=O [Compound 51] (Ac-SDELVNKKIEFDKKINQSLKKIEESDKKKLEAAAKK-NH2)	9.9	18.8	3.82
Ac-FDEEISQVNEKINQSLAFIRKSDELLHNVNAGKSTTEAAAKK(Succinyl(4-O-cholesteryl))-NH2 [Compound 26]	12.8	103	2.85
Ac-LVKKIDEFDASISQVNEKINQSLEEIRKSDELLHNVGSGSGK(Succinyl(4-O-cholesteryl))-NH2 [Compound 29]	19.3	41.6	11.1
Ac-SLEQVNEKINQSLAFIRKSDEINQSDEEVNKSDELLEAAAKK-NH2 [Compound 50]	15.1	13.3	5.95
